Reference: PubChem BioAssay AID296 (DTP/NCI, 2004)
Where “and” joins values, the source holds several entries; their conditions need not be identical. Equal values may be shown once. Results filed as inconclusive are left out. *1 amine or outer side, *2 acyl side, *3 side chain or, on linkers, in order; H or OH if unused. Where a SMILES comes first, the peptide text is derived from it. Bridges are numbered along the chain shown (N, C = ends). Roman numbers before positions name the chains, in order. [ ]: non-standard residue; d: D form. Actinocin(1to9) = Cc1c2oc3c(C)ccc(C(=O)[*:2])c3nc-2c(C(=O)[*:1])c(N)c1=O; NMeV = CN[CH](C(=O)O)C(C)C; Aze = O=C(O)[CH]1CCN1; Sar = CNCC(=O)O

Tested on: MX-1 breast xenograft, nude mice, tumor weight T/C
Assay: NCI In Vivo Anticancer Drug Screen. Data for tumor model Human Mammary Carcinoma MX-1 Xenograft (intrarenal inoculation) in NU/NU Swiss (nude) mice
Settings: endpoint: mean tumor weight change, higher = larger tumour
How it was run: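 Activity is given as a ratio, with each measurement in the compound-treated arm divided by the matching measurement in vehicle-dosed controls. Tumour size or survival serves as the measured parameter.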

[1] = dose: 25.0 mg/kg/injection, schedule: Q01DX010 (sc), vehicle: suspension in saline
[2] = dose: 50.0 mg/kg/injection, schedule: Q01DX010 (sc), vehicle: suspension in saline
[3] = dose: 300.0 mg/kg/injection, schedule: Q04DX003 (sc), vehicle: saline with Tween-80
[4] = dose: 600.0 mg/kg/injection, schedule: Q04DX003 (sc), vehicle: saline with Tween-80
[5] = dose: 1200.0 mg/kg/injection, schedule: Q04DX003 (sc), vehicle: saline with Tween-80
[6] = dose: 2400.0 mg/kg/injection, schedule: Q04DX003 (sc), vehicle: saline with Tween-80

Structure (SMILES): Nc1ccc2ccc(NS(=O)(=O)N3CCCCC3)cc2c1
- T/C (dose: 150.0 mg/kg/injection, schedule: Q04DX003 (ip), vehicle: saline with Tween-80): 110 % of control
- T/C (dose: 300.0 mg/kg/injection, schedule: Q04DX003 (ip), vehicle: saline with Tween-80): 72 % of control
- T/C (dose: 600.0 mg/kg/injection, schedule: Q04DX003 (ip), vehicle: saline with Tween-80): 86 % of control
- T/C (dose: 1200.0 mg/kg/injection, schedule: Q04DX003 (ip), vehicle: saline with Tween-80): 92 % of control

Structure (SMILES): C[n+]1c(/C=C\C=C\N2CCCCC2)sc2ccccc21
- T/C (dose: 0.75 mg/kg/injection, schedule: Q04DX003 (sc), vehicle: Klucel (hydroxypropylcellulose) (HPC)): 84 % of control
- T/C (dose: 1.5 mg/kg/injection, schedule: Q04DX003 (sc), vehicle: Klucel (hydroxypropylcellulose) (HPC)): 93 % of control

Structure (SMILES): CC1(C)N=C(N)N=C(N)N1c1ccc(CCCCc2ccc(S(=O)(=O)F)cc2Cl)c(Cl)c1
- T/C (dose: 12.5 mg/kg/injection, schedule: Q01DX010 (sc), vehicle: suspension in saline): 87 % of control
- T/C [1]: 77 % of control
- T/C [2]: 57 % of control

Structure (SMILES): C=C(Cl)C(=NC(C)(C)C)Nc1ccccc1C
- T/C (dose: 75.0 mg/kg/injection, schedule: Q04DX003 (sc), vehicle: Klucel (hydroxypropylcellulose) (HPC)): 96 % of control

Structure (SMILES): CC(Oc1ccccc1-c1ccccc1)C(=O)N(C)C (stereo unspecified)
- T/C [3]: 82 % of control
- T/C [4]: 102 % of control
- T/C [5]: 114 % of control
- T/C [6]: 60 % of control

Structure (SMILES): Cc1c2oc3c(C)ccc(C(=O)NC4C(=O)NC(C(C)C)C(=O)N5CCCC5C(=O)N(C)CC(=O)N(C)C(C(C)C)C(=O)OC4C)c3nc-2c(C(=O)NC2C(=O)NC(C(C)C)C(=O)N3CCC3C(=O)N(C)CC(=O)N(C)C(C(C)C)C(=O)OC2C)c(N)c1=O (stereo unspecified) (I: TV[Aze][Sar][NMeV] / II: TVP[Sar][NMeV]; ester I:1-I:C, II:1-II:C; linker I:N-II:N via Actinocin(1to9); configuration not given here)
- T/C (dose: 0.25 mg/kg/injection, schedule: Q04DX003 (sc), vehicle: saline + alcohol): 53 % of control
- T/C (dose: 0.5 mg/kg/injection, schedule: Q04DX003 (sc), vehicle: saline + alcohol): 12 % of control
- T/C (dose: 0.5 mg/kg/injection, schedule: Q04DX003 (sc), vehicle: saline): 112 % of control
- T/C (dose: 1.0 mg/kg/injection, schedule: Q04DX003 (sc), vehicle: saline + alcohol): -80 % of control
- T/C (dose: 1.0 mg/kg/injection, schedule: Q04DX003 (sc), vehicle: saline): 47 % of control
- T/C (dose: 2.0 mg/kg/injection, schedule: Q04DX003 (sc), vehicle: saline): 40 % of control

Structure (SMILES): Nc1cccc(=O)[nH]1
- T/C (dose: 300.0 mg/kg/injection, schedule: Q04DX003 (sc), vehicle: saline): 92 % of control
- T/C (dose: 600.0 mg/kg/injection, schedule: Q04DX003 (sc), vehicle: saline): 95 % of control
- T/C (dose: 1200.0 mg/kg/injection, schedule: Q04DX003 (sc), vehicle: saline): 102 % of control

Structure (SMILES): CN(C(=S)S(=O)(=O)C12CC3CC(CC(C3)C1)C2)c1ccccc1
- T/C (dose: 800.0 mg/kg/injection, schedule: Q04DX003 (sc), vehicle: Klucel (hydroxypropylcellulose) (HPC)): 204 % of control

Structure (SMILES): C[Si](C)(CCl)N[Si](C)(C)CCl
- T/C [3]: 50 % of control
- T/C [4]: 35 % of control

Structure (SMILES): Cc1c(N)nc([C@H](CC(N)=O)NC[C@H](N)C(N)=O)nc1C(=O)N[C@H](C(=O)N[C@H](C)[C@@H](O)[C@H](C)C(=O)N[C@H](C(=O)NCCc1nc(-c2nc(C(=O)NCCC[S+](C)C)cs2)cs1)[C@@H](C)O)C(OC1OC(CO)C(O)C(O)C1OC1OC(CO)C(O)C(OC(N)=O)C1O)c1cnc[nH]1 (stereo partly specified)
- T/C (dose: 4.0 mg/kg/injection, schedule: Q01DX010 (ip), vehicle: saline): 86 % of control
- T/C (dose: 6.25 mg/kg/injection, schedule: Q04DX003 (sc), vehicle: saline): 93 % of control
- T/C (dose: 8.0 mg/kg/injection, schedule: Q01DX010 (ip), vehicle: saline): 55 % of control
- T/C (dose: 8.0 mg/kg/injection, schedule: Q04DX003 (sc), vehicle: saline): 87 % of control
- T/C (dose: 13.3 mg/kg/injection, schedule: Q04DX003 (sc), vehicle: saline): 67 % of control
- T/C (dose: 13.33 mg/kg/injection, schedule: Q04DX003 (ip), vehicle: saline): 101 % of control and 120 % of control
- T/C (dose: 13.33 mg/kg/injection, schedule: Q04DX003 (sc), vehicle: saline): 45 % of control
- T/C (dose: 16.0 mg/kg/injection, schedule: Q01DX010 (ip), vehicle: saline): 49 % of control
- T/C (dose: 16.0 mg/kg/injection, schedule: Q04DX003 (sc), vehicle: saline): 46 % of control
- T/C (dose: 25.0 mg/kg/injection, schedule: Q04DX003 (sc), vehicle: saline): 50 % of control
- T/C (dose: 26.65 mg/kg/injection, schedule: Q04DX003 (ip), vehicle: saline): 71 % of control
- T/C (dose: 26.66 mg/kg/injection, schedule: Q04DX003 (ip), vehicle: saline): 89 % of control
- T/C (dose: 32.0 mg/kg/injection, schedule: Q01DX010 (ip), vehicle: saline): 53 % of control
- T/C (dose: 32.0 mg/kg/injection, schedule: Q04DX003 (sc), vehicle: saline): 15 % of control
- T/C (dose: 37.5 mg/kg/injection, schedule: Q04DX003 (sc), vehicle: saline): 80 % of control
- T/C (dose: 50.0 mg/kg/injection, schedule: Q04DX003 (sc), vehicle: saline): 46 % of control
- T/C (dose: 53.3 mg/kg/injection, schedule: Q04DX003 (ip), vehicle: saline): 63 % of control
- T/C (dose: 53.3 mg/kg/injection, schedule: Q04DX003 (sc), vehicle: saline): 49 % of control
- T/C (dose: 53.33 mg/kg/injection, schedule: Q04DX003 (ip), vehicle: saline): 59 % of control
- T/C (dose: 53.33 mg/kg/injection, schedule: Q04DX003 (sc), vehicle: saline): 106 % of control
- T/C (dose: 75.0 mg/kg/injection, schedule: Q04DX003 (sc), vehicle: saline): 30 % of control
- T/C (dose: 106.6 mg/kg/injection, schedule: Q04DX003 (ip), vehicle: saline): 88 % of control
- T/C (dose: 106.6 mg/kg/injection, schedule: Q04DX003 (sc), vehicle: saline): 51 % of control
- T/C (dose: 106.66 mg/kg/injection, schedule: Q04DX003 (sc), vehicle: saline): 64 % of control
- T/C (dose: 150.0 mg/kg/injection, schedule: Q04DX003 (sc), vehicle: saline): 17 % of control

Structure (SMILES): Oc1ccccc1C=NCCC[N-]CCCN=Cc1ccccc1O.[Co]
- T/C [1]: 85 % of control
- T/C [2]: 93 % of control
- T/C (dose: 100.0 mg/kg/injection, schedule: Q01DX010 (sc), vehicle: suspension in saline): 40 % of control
- T/C (dose: 200.0 mg/kg/injection, schedule: Q01DX010 (sc), vehicle: suspension in saline): 31 % of control

Structure (SMILES): CC(C)(C)c1ccc(CN2CCN(C(c3ccccc3)c3ccc(Cl)cc3)CC2)cc1 (stereo unspecified)
- T/C (dose: 4.5 mg/kg/injection, schedule: Q01DX010 (sc), vehicle: Klucel (hydroxypropylcellulose) (HPC)): 96 % of control
- T/C (dose: 9.0 mg/kg/injection, schedule: Q01DX010 (sc), vehicle: Klucel (hydroxypropylcellulose) (HPC)): 101 % of control
- T/C (dose: 18.0 mg/kg/injection, schedule: Q01DX010 (sc), vehicle: Klucel (hydroxypropylcellulose) (HPC)): 117 % of control
- T/C (dose: 36.0 mg/kg/injection, schedule: Q01DX010 (sc), vehicle: Klucel (hydroxypropylcellulose) (HPC)): 101 % of control
- T/C (dose: 300.0 mg/kg/injection, schedule: Q04DX003 (sc), vehicle: Klucel (hydroxypropylcellulose) (HPC)): 102 % of control
- T/C (dose: 600.0 mg/kg/injection, schedule: Q04DX003 (sc), vehicle: Klucel (hydroxypropylcellulose) (HPC)): 106 % of control
- T/C (dose: 1200.0 mg/kg/injection, schedule: Q04DX003 (sc), vehicle: Klucel (hydroxypropylcellulose) (HPC)): 100 % of control

Structure (SMILES): CCSC(=O)N1c2ccc(OC)cc2C=CC1C#N (stereo unspecified)
- T/C [4]: 119 % of control
- T/C [5]: 85 % of control
- T/C [6]: 57 % of control
- T/C (dose: 4800.0 mg/kg/injection, schedule: Q04DX003 (sc), vehicle: saline with Tween-80): 40 % of control

Structure (SMILES): CC(=O)Oc1ccc[nH]c1=O
- T/C (dose: 200.0 mg/kg/injection, schedule: Q04DX003 (sc), vehicle: saline with Tween-80): 111 % of control
- T/C (dose: 400.0 mg/kg/injection, schedule: Q04DX003 (sc), vehicle: saline with Tween-80): 100 % of control
- T/C (dose: 800.0 mg/kg/injection, schedule: Q04DX003 (sc), vehicle: saline with Tween-80): 114 % of control

Structure (SMILES): COc1cccc2c1C(=N)c1c(O)c3c(c(O)c1C2=O)C[C@@](O)(C(C)=O)C[C@@H]3OC1CC(N)C(O)C(C)O1 (stereo partly specified)
- T/C (dose: 4.0 mg/kg/injection, schedule: Q01DX010 (sc), vehicle: water): 62 % of control
- T/C (dose: 16.0 mg/kg/injection, schedule: Q01DX010 (sc), vehicle: water): 13 % of control and 21 % of control
